Structures can show the parent of a compound that is named as a salt. Where two headings read alike, the source gives them in different places.
Key:
[1] = test system: Vero-B4 cells; experiment: WST-1 cell viability (cytotoxicity) assay in non-infected Vero-B4 cells; settings: 3 days; for toxic effect (WST assay): antivirally effective concentrations
Method: Toxicity was assessed with a WST assay. Herein viable cells with an intact mitochondrial succinate-tetrazolium dehydrogenase system effect an enzymatic conversion of the feebly red tetrazolium salt WST-1 (4-[3-(4-iodophenyl)-2-(4-nitrophenyl)-2H-5-tetrazolio]-1,3 benzene disulfonate) into dark red formazan. This color change can be measured photometrically in a spectrophotometer. Thus, the WST assay is a very sensitive method for measuring the toxicity of substances on the cell metabolism.
In FIG. 4 the percentage of viable cells is depicted in comparison to untreated cells. The value for untreated cells was set to 100%. 1 μM staurosporine (an indolocarbazole compound from Streptomyces staurosporeus, an apoptosis inducer) was used as positive control.
In FIG. 8 the percentage of viable cells is depicted in comparison to untreated cells wherein the value for untreated cells was set to 100%. Again 1 μM staurosporine was used as positive control.

[2] = test system: SARS-CoV-2; format: cell-based; settings: infected Vero-B4 cells, 3 dpi; for inhibition of SARS-CoV-2 protein generation compared with same/respective concentration of chloroquine or hydroxychloroquine (densitometry): comparators at 10 μM
[3] = test system: SARS-CoV-2; format: cell-based; settings: infected Vero-B4 cells, 3 dpi
[4] = quinine sulfate series up to 100 μM

| SMILES | toxic effect (WST assay) [1] | concentration up to which no toxic effect was detectable (WST assay) ([1]; tested 2.5 to 80 μM) | block of virus replication (Western blot) ([2]; 20 μM) | inhibition of SARS-CoV-2 replication (Western blot) ([2]; 2.5, 5, 10 and 20 μM) | generation of SARS-CoV-2 proteins (densitometric evaluation of nucleoprotein in virus fraction) ([2]; 2.5 to 20 μM) | inhibition of SARS-CoV-2 protein generation compared with same/respective concentration of chloroquine or hydroxychloroquine (densitometry) [2] | reduction compared with 10 μM chloroquine or 10 μM hydroxychloroquine (Western blot) ([2]; quinidine sulfate series up to 20 μM) | reduction of SARS-CoV-2 RNA copies (qRT-PCR) ([3]; 2.5 μM, 5 μM, 10 μM and 20 μM) | reduction of SARS-CoV-2 RNA copies (qRT-PCR) ([3]; 10 μM) | reduction compared with 10 μM chloroquine or 10 μM hydroxychloroquine (qRT-PCR) ([3]; 20 μM) | reduction of SARS-CoV-2 RNA copies (qRT-PCR) ([3]; 20 μM) | generation of SARS-CoV-2 proteins (densitometric evaluation of nucleoprotein in virus fraction) ([2]; 100 nM to 100 μM) | inhibition of SARS-CoV-2 replication (Western blot) ([2]; 100 nM, 1 μM, 10 μM and 100 μM) | block of virus replication (Western blot) ([2]; 100 μM) | reduction compared with 10 μM chloroquine or 10 μM hydroxychloroquine (Western blot) [2, 4] | reduction in the amount of SARS-CoV-2 RNA copies (qRT-PCR) ([3]; 100 nM, 1 μM, 10 μM and 100 μM) | block of virus spread (qRT-PCR) ([3]; 100 μM) | reduction compared with 10 μM chloroquine or 10 μM hydroxychloroquine (qRT-PCR) [3, 4] |
| --- | --- | --- | --- | --- | --- | --- | --- | --- | --- | --- | --- | --- | --- | --- | --- | --- | --- | --- |
| C=C[C@H]1C[N@@]2CC[C@H]1C[C@@H]2[C@@H](O)c1ccnc2ccc(OC)cc12 [quinidine sulfate] | did not display any significant toxic effect | Up to 80 μM | nearly complete block of virus replication | dose-dependent inhibition | inhibited in a dose-dependent manner | higher percentage | clearly higher | dose-dependent reduction | approximately 82% | significant better reduction | approximately 97% |  |  |  |  |  |  |  |
| C=C[C@H]1C[N@@]2CC[C@H]1C[C@H]2[C@H](O)c1ccnc2ccc(OC)cc12 [quinine sulfate] | did not display any significant toxic effect |  |  |  |  | higher percentage |  |  | approximately 85% |  |  | inhibited in a dose-dependent manner | dose-dependent inhibition | complete block of virus replication | significantly higher | dose-dependent reduction | complete block of virus spread | significantly higher |

— patent US20230165851A1, “6'-METHOXYCINCHONAN-9-OLS FOR THE TREATMENT OF CORONAVIRAL INFECTIONS” (Immunologik GmbH, priority 2020, published 2023)
